Reference: EP4707280A1, “1,4-CINEOLE DERIVATIVE AND INTERMEDIATE THEREOF, HERBICIDE CONTAINING SAID DERIVATIVE AS ACTIVE INGREDIENT, METHOD FOR USING HERBICIDE, AND METHOD FOR PREPARING AGROCHEMICAL COMPOSITION” (HOKKO CHEMICAL INDUSTRY CO., LTD., priority 2023, dated 2024)

Tests used:
Assay type in all cases: in vivo
Digitaria ciliaris [1] = test: Test Example 4: herbicidal effect test by stem and leaf treatment in upland field; conditions: Digitaria ciliaris; 120 g per 10 ares; sprayed seven days after sowing, upland soil; 14 days after application; read-out: weed inhibition rate
Scirpus juncoides [2] = test: Test Example 1: herbicidal effect test by soil application in paddy rice; conditions: Schoenoplectiella juncoides, soil, 336 h; 120 g active ingredient per 10 ares; applied immediately after sowing, flooded pots; 14 days after application; read-out: weed inhibition rate
Procedure, shortened: (§1)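 Pre-emergence paddy treatment: diluted emulsifiable concentrate applied by dropper at 120 g a.i./10 ares immediately after sowing. Seeds (30 per species, 0–1 cm deep) in fertilized, puddled paddy soil kept under ~3 cm flood in a glass greenhouse.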

[3] = system: Echinochloa crus-galli var. formosensis; test: as above; conditions: Echinochloa crus-galli, soil, 336 h; 120 g active ingredient per 10 ares; applied immediately after sowing, flooded pots; 14 days after application; read-out: weed inhibition rate
Procedure, shortened: as §1

[4] = system: Echinochloa crus-galli var. formosensis; test: Test Example 6: herbicidal effect test by application during growth period of paddy rice (low dose); conditions: Echinochloa crus-galli; 7.5 g per 10 ares; applied seven days after sowing, flooded pots; 14 days after application; read-out: weed inhibition rate
Procedure, shortened: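 Formulated compound, diluted in water, was dropped onto flooded pots seven days post-sowing at 7.5 g a.i. per 10 ares. Seeds had been sown 0-1 cm deep in puddled paddy soil under ~3 cm water in a glass greenhouse. Inhibition (%) assessed at 14 days; duplicate pots.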

[5] = system: Echinochloa crus-galli var. formosensis; test: Test Example 5: herbicidal effect test by soil application in paddy rice (low dose); conditions: Echinochloa crus-galli, soil, 336 h; 7.5 g per 10 ares; applied immediately after sowing, flooded pots; 14 days after application; read-out: weed inhibition rate
Procedure, shortened: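 Pots of puddled, fertilized paddy soil receive 30 seeds per species at 0–1 cm depth and are flooded to about 3 cm. The diluted emulsifiable concentrate is then dropped onto the water, delivering 7.5 g active ingredient per 10 ares. Greenhouse grown; herbicidal effect scored 14 days later, two replicates.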

Scirpus juncoides [6] = test: Test Example 2: herbicidal effect test by application during growth period of paddy rice; conditions: Schoenoplectiella juncoides; 120 g per 10 ares; applied seven days after sowing, flooded pots; 14 days after application; read-out: weed inhibition rate
Procedure, shortened: (§2)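 Weeds sown into puddled, flooded paddy soil received a post-emergence water application of emulsifiable concentrate at 120 g active ingredient per 10 ares, seven days after sowing. Herbicidal effect was rated 14 days later as inhibition (%).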

[7] = system: Echinochloa crus-galli var. formosensis; test: as above; conditions: Echinochloa crus-galli; 120 g per 10 ares; applied seven days after sowing, flooded pots; 14 days after application; read-out: weed inhibition rate
Procedure, shortened: as §2

Echinochloa crus-galli [8] = test: Test Example 4: herbicidal effect test by stem and leaf treatment in upland field; conditions: Echinochloa crus-galli; 120 g per 10 ares; sprayed seven days after sowing, upland soil; 14 days after application; read-out: weed inhibition rate
Echinochloa crus-galli [9] = test: Test Example 7: herbicidal effect test by soil application in upland field (low dose); conditions: Echinochloa crus-galli, 7.5 g per 10 ares, sprayed one day after sowing, 14 days after application, read-out: weed inhibition rate
Protocol: (§3) The present test was conducted in duplicate for each chemical concentration group, and the weed inhibition rate (%) was determined 14 days after chemical application using the following formula (Math. 1). [formula]
(§4) Pots with an area of 36 cm^2 were filled with upland soil (alluvial loam), twenty seeds each of weeds of Digitaria ciliaris, and Echinochloa crus-galli were uniformly mixed with the top 1 cm layer of soil and the surface was lightly pressed down. One day after sowing, an emulsifiable concentrate prepared according to Formulation Example 5 using the compound shown below was diluted with water, and the diluted solution was sprayed onto the soil surface at a rate of 100 liters per 10 ares. The amount of the active ingredient to be applied was equivalent to 7.5 g per 10 ares. Fourteen days after chemical application, the herbicidal effect was evaluated according to the same criteria as in Test Example 1.

Digitaria ciliaris [10] = test: as above; conditions: Digitaria ciliaris, 7.5 g per 10 ares, sprayed one day after sowing, 14 days after application, read-out: weed inhibition rate
Protocol: as §3, §4

Echinochloa crus-galli [11] = test: Test Example 8: herbicidal effect test by stem and leaf treatment in upland field (low dose); conditions: Echinochloa crus-galli; 7.5 g per 10 ares; sprayed seven days after sowing, upland soil; 14 days after application; read-out: weed inhibition rate
Protocol: as §3
as §4, with “Seven days” for “One day”

Digitaria ciliaris [12] = test: as above; conditions: Digitaria ciliaris; 7.5 g per 10 ares; sprayed seven days after sowing, upland soil; 14 days after application; read-out: weed inhibition rate
Protocol: as §3
as §4, with “Seven days” for “One day”

Echinochloa crus-galli [13] = test: Test Example 3: herbicidal effect test by soil application in upland field; conditions: Echinochloa crus-galli, 120 g per 10 ares, sprayed one day after sowing, 14 days after application, read-out: weed inhibition rate
Procedure, shortened: (§5)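 Weed inhibition (%) was assessed 14 days after treatment, in duplicate per concentration group. Seeds had been mixed into the upper 1 cm of upland alluvial loam, and the soil surface was sprayed one day later with the diluted emulsifiable concentrate at 120 g active ingredient per 10 ares.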

Digitaria ciliaris [14] = test: as above; conditions: Digitaria ciliaris, 120 g per 10 ares, sprayed one day after sowing, 14 days after application, read-out: weed inhibition rate
Procedure, shortened: as §5

CC(C)[C@]12CC(OCc3ccccc3)[C@](C)(C[C@@H]1Cl)O2 (mixture of isomers) [1-8, (1R,2S,4S,SR)-5-benzyloxy-2-chloro-1-isopropyl-4-methyl-7-oxabicyclo[2.2.1]heptane]
≥ 80%: inhibition at 1200 g/ha (Digitaria ciliaris [1]) | pest or weed control at 1200 g/ha (Scirpus juncoides [2]) | pest or weed control at 1200 g/ha [3] | inhibition at 75 g/ha [4] | inhibition at 75 g/ha [5] | inhibition at 1200 g/ha (Scirpus juncoides [6]) | inhibition at 1200 g/ha [7] | inhibition at 1200 g/ha (Echinochloa crus-galli [8]) | inhibition at 75 g/ha (Echinochloa crus-galli [9]) | inhibition at 75 g/ha (Digitaria ciliaris [10]) | inhibition at 75 g/ha (Echinochloa crus-galli [11]) | inhibition at 75 g/ha (Digitaria ciliaris [12]) | inhibition at 1200 g/ha (Echinochloa crus-galli [13]) | inhibition at 1200 g/ha (Digitaria ciliaris [14])

CC(C)[C@]12CC(OCc3c(Cl)cccc3Cl)[C@](C)(C[C@@H]1I)O2 (mixture of isomers) [1-779, (1R,2S,4S,SR)-5-[(2,6-dichlorophenyl)methoxy]-2-iodo-1-isopropyl-4-methyl-7-oxabicyclo[2.2.1]heptane]
≥ 80%: inhibition at 1200 g/ha (Digitaria ciliaris [1]) | pest or weed control at 1200 g/ha (Scirpus juncoides [2]) | pest or weed control at 1200 g/ha [3] | inhibition at 75 g/ha [4] | inhibition at 75 g/ha [5] | inhibition at 1200 g/ha (Scirpus juncoides [6]) | inhibition at 1200 g/ha [7] | inhibition at 1200 g/ha (Echinochloa crus-galli [8]) | inhibition at 75 g/ha (Echinochloa crus-galli [9]) | inhibition at 75 g/ha (Digitaria ciliaris [10]) | inhibition at 75 g/ha (Echinochloa crus-galli [11]) | inhibition at 75 g/ha (Digitaria ciliaris [12]) | inhibition at 1200 g/ha (Echinochloa crus-galli [13]) | inhibition at 1200 g/ha (Digitaria ciliaris [14])

CO[C@H]1C[C@]2(C)O[C@@]1(C(C)C)CC2OCC=C(C)C (mixture of isomers) [1-799, (1R,2S,4S,SR)-1-isopropyl-2-methoxy-4-methyl-5-(3-methylbut-2-enoxy)-7-oxabicyclo[2.2.1]heptane]
≥ 80%: inhibition at 1200 g/ha (Digitaria ciliaris [1]) | pest or weed control at 1200 g/ha (Scirpus juncoides [2]) | pest or weed control at 1200 g/ha [3] | inhibition at 75 g/ha [4] | inhibition at 75 g/ha [5] | inhibition at 1200 g/ha (Scirpus juncoides [6]) | inhibition at 1200 g/ha [7] | inhibition at 1200 g/ha (Echinochloa crus-galli [8]) | inhibition at 75 g/ha (Echinochloa crus-galli [9]) | inhibition at 75 g/ha (Digitaria ciliaris [10]) | inhibition at 75 g/ha (Echinochloa crus-galli [11]) | inhibition at 75 g/ha (Digitaria ciliaris [12]) | inhibition at 1200 g/ha (Echinochloa crus-galli [13]) | inhibition at 1200 g/ha (Digitaria ciliaris [14])

CC#CCOC1C[C@]2(C(C)C)O[C@@]1(C)C[C@@H]2OC (mixture of isomers) [1-801, (1R,2S,4S,SR)-5-but-2-ynoxy-1-isopropyl-2-methoxy-4-methyl-7-oxabicyclo[2.2.1]heptane]
≥ 80%: inhibition at 1200 g/ha (Digitaria ciliaris [1]) | pest or weed control at 1200 g/ha (Scirpus juncoides [2]) | pest or weed control at 1200 g/ha [3] | inhibition at 75 g/ha [4] | inhibition at 75 g/ha [5] | inhibition at 1200 g/ha (Scirpus juncoides [6]) | inhibition at 1200 g/ha [7] | inhibition at 1200 g/ha (Echinochloa crus-galli [8]) | inhibition at 75 g/ha (Echinochloa crus-galli [9]) | inhibition at 75 g/ha (Digitaria ciliaris [10]) | inhibition at 75 g/ha (Echinochloa crus-galli [11]) | inhibition at 75 g/ha (Digitaria ciliaris [12]) | inhibition at 1200 g/ha (Echinochloa crus-galli [13]) | inhibition at 1200 g/ha (Digitaria ciliaris [14])

CC(C)[C@]12C[C@@H](OCc3ccccc3F)[C@](C)(C[C@@H]1C)O2 (racemic) [1-1555, (1SR,2RS,4RS,5SR)-2-[(2-fluorophenyl)methoxy]-1,5-dimethyl-4-isopropyl-7-oxabicyclo[2.2.1]heptane]
≥ 80%: inhibition at 1200 g/ha (Digitaria ciliaris [1]) | pest or weed control at 1200 g/ha (Scirpus juncoides [2]) | pest or weed control at 1200 g/ha [3] | inhibition at 75 g/ha [4] | inhibition at 75 g/ha [5] | inhibition at 1200 g/ha (Scirpus juncoides [6]) | inhibition at 1200 g/ha [7] | inhibition at 1200 g/ha (Echinochloa crus-galli [8]) | inhibition at 75 g/ha (Echinochloa crus-galli [9]) | inhibition at 75 g/ha (Digitaria ciliaris [10]) | inhibition at 75 g/ha (Echinochloa crus-galli [11]) | inhibition at 75 g/ha (Digitaria ciliaris [12]) | inhibition at 1200 g/ha (Echinochloa crus-galli [13]) | inhibition at 1200 g/ha (Digitaria ciliaris [14])
